Each structure is given as a SMILES string.

As a reminder, the IC50 is the concentration that inhibits the measured activity by half.

The subject of assay [1] is ALPK1-dependent NFκB reporter gene activation in HEK293 cells stably expressing an NF-kB reporter (G9 cells). Put plainly: NFκB gene reporter alkaline phosphatase assay. The assay is classed as cell-based. Conditions: Homo sapiens, HEK293; read-out: NFkB assay IC50. An excerpt:
In embodiments, a compound of Formula I, or a subembodiment described herein, is an inhibitor of ALPK1 as measured, for example, in an in vitro kinase assay, or an assay designed to measure the activation of downstream targets of ALPK1 pathway activation, for example NFkB transcriptional activation and the secretion of proinflammatory cytokines and chemokines, such as IL-8, which is also referred to as CXCL-8. In general, the computer program XL fit was used for data analysis, including non-linear regression analysis. The half maximal inhibitory concentration (IC50) was used as the measure of a compound's effectiveness in the assays. IC50 values were determined using the following logistic equation Y=min+(max−min)/(1+(X/IC50^−hillslpoe), where Y is the value at the compound concentration, X. The concentration response curve fitting was conducted using GraphPad Prism version 6.00 software.
An alkaline phosphatase reporter assay system was used to measure inhibition of ALPK1-dependent NFκB reporter gene activation. Briefly, HEK293 cells stably expressing an NF-kB reporter (referred to herein as “G9 cells”) were maintained in DMEM as described above. For the assay, cells were seeded into 96-well plates at a density of 10,000 cells/well in Freestyle™ 293 Expression Medium (ThermoFisher), and allowed to attach overnight. Cells were pretreated with serially diluted compounds for 30 min and then stimulated with D-glycero-D-manno-6-fluoro-heptose-1β-S-ADP. […] NFkB gene activation was detected using the chromogenic substrate, para-nitrophenyl phosphate (pNPP) according to the manufacturer's protocols (pNPP Phosphatase Assay, Beyotime Biotechnology).

In another assay the target is ALPK1 (Homo sapiens (Human), UniProt Q96QP1). In words: ALPK1 in vitro kinase assay (HTRF of TIFA phosphorylation). It counts as biochemical. On the technique in general: Time-resolved FRET reads energy transfer from a long-lived donor to a nearby acceptor.
Sequence of ALPK1 (Q96QP1 whole entry): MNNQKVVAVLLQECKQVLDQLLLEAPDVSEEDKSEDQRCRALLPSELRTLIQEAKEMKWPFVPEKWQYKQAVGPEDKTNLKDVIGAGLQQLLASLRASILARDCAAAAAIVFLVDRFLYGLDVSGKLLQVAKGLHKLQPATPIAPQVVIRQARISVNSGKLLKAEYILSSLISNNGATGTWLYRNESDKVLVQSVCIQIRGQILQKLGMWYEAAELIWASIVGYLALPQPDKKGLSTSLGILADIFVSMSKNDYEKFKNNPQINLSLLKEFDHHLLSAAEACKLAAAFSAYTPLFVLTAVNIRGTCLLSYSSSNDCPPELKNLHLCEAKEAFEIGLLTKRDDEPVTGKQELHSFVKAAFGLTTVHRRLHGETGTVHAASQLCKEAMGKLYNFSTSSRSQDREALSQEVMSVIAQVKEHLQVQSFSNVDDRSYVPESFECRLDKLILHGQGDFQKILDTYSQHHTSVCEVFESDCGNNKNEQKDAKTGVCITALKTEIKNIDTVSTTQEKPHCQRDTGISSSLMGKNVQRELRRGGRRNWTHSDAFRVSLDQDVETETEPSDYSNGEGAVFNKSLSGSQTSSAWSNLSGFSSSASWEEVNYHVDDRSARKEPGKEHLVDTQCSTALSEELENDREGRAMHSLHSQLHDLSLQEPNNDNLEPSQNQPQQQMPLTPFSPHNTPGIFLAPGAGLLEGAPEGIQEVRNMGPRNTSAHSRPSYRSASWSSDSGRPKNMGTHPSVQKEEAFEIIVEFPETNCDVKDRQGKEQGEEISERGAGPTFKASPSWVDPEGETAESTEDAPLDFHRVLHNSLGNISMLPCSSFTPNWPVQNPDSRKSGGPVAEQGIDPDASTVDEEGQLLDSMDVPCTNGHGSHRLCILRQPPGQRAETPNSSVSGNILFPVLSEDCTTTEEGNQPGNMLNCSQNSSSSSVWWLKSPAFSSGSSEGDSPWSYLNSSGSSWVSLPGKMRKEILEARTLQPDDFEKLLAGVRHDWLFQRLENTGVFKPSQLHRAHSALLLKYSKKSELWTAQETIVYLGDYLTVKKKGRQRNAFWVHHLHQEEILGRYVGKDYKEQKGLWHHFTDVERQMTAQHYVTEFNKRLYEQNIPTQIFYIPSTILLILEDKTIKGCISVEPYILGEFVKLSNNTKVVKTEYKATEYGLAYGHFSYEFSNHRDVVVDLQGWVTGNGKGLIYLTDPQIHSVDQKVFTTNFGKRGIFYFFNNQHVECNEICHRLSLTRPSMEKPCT

Take `COc1ccc(C(C)(C)c2csc(NC(=O)NCCCS(=O)(=O)N3CCNCC3)n2)cc1` [Example A230, 1-(4-(2-(4-methoxyphenyl)propan-2-yl)thiazol-2-yl)-3-(3-(piperazin-1-ylsulfonyl)propyl)urea]: the values for the IC50 (in assay [1]; at ALPK1) were 3010 nM and 127 nM, respectively.

`CNS(=O)(=O)[C@H]1C[C@@H](CNC(=O)Nc2nc(C(C)(C)c3ccc(OC)cc3)cs2)C1` [Example A149, rac-(1s,3s)-3-((3-(4-(2-(4-methoxyphenyl)propan-2-yl)thiazol-2-yl)ureido)methyl)-N-methylcyclobutane-1-sulfonamide]: the IC50 is 9400 nM in assay [1] and 155 nM at ALPK1.

As to `C#C[C@](C)(c1ccc(Br)cc1)c1csc(NC(=O)N2CC(CO)C2)n1` [Example A166, (R)-N-(4-(2-(4-bromophenyl)but-3-yn-2-yl)thiazol-2-yl)-3-(hydroxymethyl)azetidine-1-carboxamide], the half-inhibitory concentration (IC50) in assay [1] came out at 5710 nM; against ALPK1, 25 nM.

For the molecule `COc1ccc(C(C)(C)c2csc(NC(=O)NC3(c4ccc(N5CCNCC5)cc4)CC3)n2)cc1` [Example A240, 1-(4-(2-(4-methoxyphenyl)propan-2-yl)thiazol-2-yl)-3-(1-(4-(piperazin-1-yl)phenyl)cyclopropyl)u-rea], the results for the IC50 (in assay [1]; against ALPK1) were 1880 nM and 97 nM, respectively.

For `C#CC(C)(c1ccc(Cl)cc1)c1csc(NC(=O)N2CCC(O)C2)n1` (centres unmarked) [Example A269, N-(4-(2-(4-chlorophenyl)but-3-yn-2-yl)thiazol-2-yl)-3-hydroxypyrrolidine-1-carboxamide], the results for the IC50 (in assay [1]; against ALPK1) were 1260 nM and 881 nM, respectively.

As for `COc1ccc(C(C)(C)c2csc(NC(=O)NCCCN3CCC(N(C)C)C3)n2)cc1` (centres unmarked) [Example A141, 1-(3-(3-(dimethylamino)pyrrolidin-1-yl)propyl)-3-(4-(2-(4-methoxyphenyl)propan-2-yl)thiazol-2-yl)urea], the figures for the IC50 (in assay [1]; on ALPK1) were 4220 nM and 228 nM, respectively.

For `C#CC(C)(c1ccc(Cl)cc1)c1csc(NC(=O)N2CC(CN3CCNCC3)C2)n1` (centres unmarked) [Example A259, N-(4-(2-(4-chlorophenyl)but-3-yn-2-yl)thiazol-2-yl)-3-(piperazin-1-ylmethyl)azetidine-1-carboxamide], the concentration for half-maximal inhibition (IC50) in assay [1] is 440 nM; at ALPK1, 48 nM.

For the molecule `COc1ccc(C(C)(C)c2csc(NC(=O)NCCCN3CCC(N)C3)n2)cc1` (centres unmarked) [Example A226, 1-(3-(3-aminopyrrolidin-1-yl)propyl)-3-(4-(2-(4-methoxyphenyl)propan-2-yl)thiazol-2-yl)urea], the half-inhibitory concentration (IC50) in assay [1] is 4820 nM; at ALPK1, 100 nM.

Consider `C#CC(C)(c1ccc(Br)cc1)c1csc(NC(=O)NCC(O)CO)n1` (centres unmarked) [Example A156, 1-(4-(2-(4-bromophenyl)but-3-yn-2-yl)thiazol-2-yl)-3-(2,3-dihydroxypropyl)urea], for which the half-maximal inhibitory concentration (IC50) in assay [1] was 380 nM; against ALPK1, 22 nM.

In the case of `C#C[C@](C)(c1ccc(Cl)cc1)c1csc(NC(=O)NCCS(N)(=O)=O)n1` [Example A288, 2-(3-(4-(2-(4-chlorophenyl)but-3-yn-2-yl)thiazol-2-yl)ureido)ethanesulfona-mide], the figures for the IC50 (in assay [1]; against ALPK1) were 1210 nM and 270 nM, respectively.

Take `CC(C)(c1ccc(Cl)cc1)c1csc(NC(=O)NCc2ccc(N3CCNCC3)cc2)n1` [Example A046, 1-(4-(2-(4-chlorophenyl)propan-2-yl)thiazol-2-yl)-3-(4-(piperazin-1-yl)benzyl)urea]: the IC50 in assay [1] was 1060 nM; at ALPK1, 79 nM.

Take `CC(C)(c1ccc(Br)cc1)c1csc(NC(=O)NCc2cnc(N3CCC(O)C3)nc2)n1` (centres unmarked) [Example A079, 1-(4-(2-(4-bromophenyl)propan-2-yl)thiazol-2-yl)-3-((2-(3-hydroxypyrrolidin-1-yl)pyrimidin-5-yl)methyl)urea]: the IC50 in assay [1] was found to be 1680 nM; at ALPK1, 170 nM.

As to `CC(NC(=O)Nc1nc(C(C)(C)c2ccc(Br)cc2)cs1)c1ccc(CN2CCN(C)CC2)cc1` (centres unmarked) [Example A118, 1-(4-(2-(4-bromophenyl)propan-2-yl)thiazol-2-yl)-3-(1-(4-((4-methylpiperazin-1-yl)methyl)phenyl)ethyl) urea], the results for the IC50 (in assay [1]; on ALPK1) were 4380 nM and 227 nM, respectively.

Turning to `COc1ccc(C(C)(C)c2csc(NC(=O)NCc3ccc(N4CCC(N(C)C)C4)nc3)n2)cc1` (centres unmarked) [Example A011, 1-((6-(3-(dimethylamino)pyrrolidin-1-yl)pyridin-3-yl)methyl)-3-(4-(2-(4-methoxyphenyl)propan-2-yl)thiazol-2-yl)urea], the IC50 in assay [1] came to 1370 nM; on ALPK1, 49 nM.

For the molecule `CC(C)(c1ccc(Br)cc1)c1csc(NC(=O)NCc2ccc(N3CCNCC3)c(Cl)c2)n1` [Example A219, 1-(4-(2-(4-bromophenyl)propan-2-yl)thiazol-2-yl)-3-(3-chloro-4-(piperazin-1-yl)benzyl)urea], the values for the IC50 (in assay [1]; against ALPK1) were 2730 nM and 46 nM, respectively.

Consider `CC(C)(c1ccc(C2CC2)cc1)c1csc(NC(=O)NCc2ccc(N3CCNCC3)cc2)n1` [Example A025, 1-(4-(2-(4-cyclopropylphenyl)propan-2-yl)thiazol-2-yl)-3-(4-(piperazin-1-yl)benzyl)urea], for which the IC50 stood at 8580 nM in assay [1] and 334 nM against ALPK1.

In the case of `CC(C)(c1ccc(Br)cc1)c1csc(NC(=O)NCc2ccc(OCCN)cc2)n1` [Example A212, 1-(4-(2-aminoethoxy)benzyl)-3-(4-(2-(4-bromophenyl)propan-2-yl)thiazol-2-yl)urea], the IC50 in assay [1] was 2750 nM; against ALPK1, 289 nM.

In the case of `COc1ccc(C(C)(C)c2csc(NC(=O)NC(C)c3cc(F)c(N4CCNCC4)c(F)c3)n2)cc1` (centres unmarked) [Example A152, 1-(1-(3,5-difluoro-4-(piperazin-1-yl)phenyl)ethyl)-3-(4-(2-(4-methoxyphenyl)propan-2-yl)thiazol-2-yl)urea], the IC50 in assay [1] came to 350 nM; against ALPK1, 55 nM.

As to `C#CC(C)(c1ccc(OC)cc1)c1csc(NC(=O)NCCO)n1` (centres unmarked) [Example A168, 1-(2-hydroxyethyl)-3-(4-(2-(4-methoxyphenyl)but-3-yn-2-yl)thiazol-2-yl)urea], the IC50 in assay [1] was determined as 400 nM; at ALPK1, 27 nM.

Turning to `COCCCNC(=O)Nc1nc(C(C)(C)c2ccc(OC)cc2)cs1` [Example A111, 1-(4-(2-(4-methoxyphenyl)propan-2-yl)thiazol-2-yl)-3-(3-methoxypropyl)urea], the IC50 in assay [1] came to 1240 nM; against ALPK1, 127 nM.

As for `COc1ccc(C(C)(C)c2csc(NC(=O)NCc3ccc(N(C)CCO)nc3)n2)cc1` [Example A023, 1-((6-((2-hydroxyethyl)(methyl)a-mino)pyridin-3-yl)methyl)-3-(4-(2-(4-methoxyphenyl)propan-2-yl)thiazol-2-yl)urea], the IC50 in assay [1] is 1320 nM; against ALPK1, 229 nM.

Turning to `CC(C)(c1ccc(Br)cc1)c1csc(NC(=O)NCc2ccc(N3CCNCC3)c(N)c2)n1` [Example A098, 1-(3-amino-4-(piperazin-1-yl)benzyl)-3-(4-(2-(4-bromophenyl)propan-2-yl)thiazol-2-yl)urea], the IC50 in assay [1] worked out at 1070 nM; against ALPK1 it was 31 nM.

For the molecule `C#CC(C)(c1ccc(Br)cc1)c1csc(NC(N)=O)n1` (centres unmarked) [Example A162, 1-(4-(2-(4-bromophenyl)but-3-yn-2-yl)thiazol-2-yl)urea], the IC50 in assay [1] was found to be 180 nM; on ALPK1, 38 nM.

Turning to `CC(C)(c1ccc(F)cc1)c1csc(NC(=O)NCc2cnc(N3CCNCC3)nc2)n1` [Example A085, 1-(4-(2-(4-fluorophenyl)propan-2-yl)thiazol-2-yl)-3-((2-(piperazin-1-yl)pyrimidin-5-yl)methyl)urea], the IC50 in assay [1] came out at 490 nM; on ALPK1, 85 nM.

With `CC(C)(c1ccc(Br)cc1)c1csc(NC(=O)NCc2cnc(N3CCNCC3)cn2)n1` [Example A093, 1-(4-(2-(4-bromophenyl)propan-2-yl)thiazol-2-yl)-3-((5-(piperazin-1-yl)pyrazin-2-yl)methyl)urea], the values for the 50% inhibitory concentration (IC50) (in assay [1]; against ALPK1) were 320 nM and 9 nM, respectively.

Regarding `C#CC(C)(c1ccc(Br)cc1)c1csc(NC(=O)NCCN2CCOCC2)n1` (centres unmarked) [Example A155, 1-(4-(2-(4-bromophenyl)but-3-yn-2-yl)thiazol-2-yl)-3-(2-morpholinoethyl)urea], the IC50 in assay [1] is 900 nM; at ALPK1 it was 30 nM.

On to `CC(C)(c1ccc(Cl)c(F)c1)c1csc(NC(=O)NCc2ccc(N3CCNCC3)cc2)n1` [Example A031, 1-(4-(2-(4-chloro-3-fluorophenyl)propan-2-yl)thiazol-2-yl)-3-(4-(piperazin-1-yl)benzyl)urea], for which the figures for the IC50 (in assay [1]; at ALPK1) were 1450 nM and 345 nM, respectively.

In the case of `COc1ccc(C(C)(C)c2csc(NC(=O)NCCF)n2)cc1` [Example A021, 1-(2-fluoroethyl)-3-(4-(2-(4-methoxyphenyl)propan-2-yl)thiazol-2-yl)urea], the IC50 in assay [1] came out at 1390 nM; against ALPK1 it was 104 nM.

These data come from US20240109853A1 (Shanghai Yao Yuan Biotechnology Co., Ltd., priority 2020, published 2024).
